Test results published in US9884116B2, “FGF modulation of in vivo antibody production and humoral immunity” (priority 2010, dated 2018).

Test system: splenic B cells
Assay: Proliferation of B cells in vitro (anti-CD40 and anti-IgM stimulated)
Assay type: cell-based, mouse
Experimental: Adult wild type mice (C57B16) were sacrificed and spleens were rapidly removed. After dissociation into single cell suspension and red blood cell lysis with NH4Cl, splenocytes were isolated by centrifugation over a Ficoll gradient. Subsequently, B lymphocytes were purified by one of two methods, complement mediated lysis or CD43 negative selection. For complement lysis, cells were incubated with anti-Thy 1 antibody (J1J), anti-L3T4 (GK 1.5), anti-Ly2 (TIB105, ATCC) and rabbit complement (Sigma) for two hours at 37°. CD43 negative selection was carried out using anti-CD43 (Serotec) and Miltenyi microbeads according to the manufacturer's instructions. Cells were cultured in RPMI 1640, 10% fetal calf serum for three days in the presence of anti-CD40 (mAb 1C10, generous gift of Hsiou-Chi Liou, Weill Medical College of Cornell University) and anti-IgM Fab′2 fragments (Jackson Immunoresearch). FGF1 (100 ng/ml) and Heparin (10 ug/ml) were added, and the number of cells was determined in triplicate compared to Heparin alone using a Coulter Counter (Coulter) or trypan blue exclusion with the same results. […]
FGF signaling inhibits splenic B cell proliferation. […] The values represent the percent decrease in total cell number observed with addition of 100 ng/ml FGF1 (determined in triplicate) as compared to heparin (10 ug/ml) alone. x=mean+/− s.e.m. […]

In the case of “FGF1: fibroblast growth factor ligand added exogenously to B cells; stimulates the widest range of FGF receptors”, the “% Decrease in total cell number, mean +/- s.e.m.” value (mean of 6 experiments, 100 ng/ml FGF1 plus heparin vs heparin alone, 3 days, one sample t test p<0.01) was 19.7 +/− 2.8% and the B cell number (purified spleen B cells with CD40 and BCR signaling activated, incubated in the presence of FGF-1) was “inhibited”.
